Consider 9 molecules from patent publication US12624368B2 (priority 2018, dated 2026).

≈ marks a conversion by molar mass, not a printed value. Entries after “also recorded” stand apart in the source; their conditions may differ. Read-outs that look alike come from different tables or passages of the source. Where a SMILES comes first, the peptide text is derived from it.

For data set [1], the system named is HA mediated membrane fusion. To be noted: pH 5.
In data set [2] the test system is endosomal acidification in MDCK cells. The format is cell-based, canine.
The test system of data set [3] is A(H7N7) virus. The following applies: 1 h.
The subject of data set [4] is A(H1N1)pdm09 virus. The class given is cell-based, influenza A virus A(H1N1)pdm09.
Data set [5] in a line: in vitro. The following applies: dog.
Data set [6] is described as follows: in vitro. The following applies: human.
In data set [7] the test system is A(H1N1)pdm09 virus. The following applies: 1 h.
Data set [8] deals with A(H7N7) virus. More on the design: species or system BALB/c mice. The following applies: mouse, in vivo.
The subject of a further data set is endosomal acidification. The following applies: cited from earlier work.
In data set [9] the test system is A(H1N1)pdm09 virus. More on the design: species or system BALB/c mice. The following applies: in vivo.
The subject of data set [10] is A(H7N7) and A(H1N1)pdm09 virus. The format is cell-based, influenza A virus. To be noted: 0-8,000 nM.
Another data set relates to 293T cells. The format is cell-based, human.
The next data set deals with mouse lungs. To be noted: in vivo.
The mark [11] stands for this setting: MDCK cells, P1 25.0 μg ml^−1, TAT-P1 3.1 μg ml^−1, bafilomycin A1 100.0 nM, PA1 25.0 μg ml^−1.

Turning to `CC[C@H](C)[C@H](NC(=O)[C@H](CCC(N)=O)NC(=O)[C@H](CCCNC(=N)N)NC(=O)[C@H](Cc1ccccc1)NC(=O)[C@H](C)NC(=O)[C@@H](NC(=O)[C@@H]1CCCN1C(=O)[C@H](CS)NC(=O)[C@@H]1CCCN1C(=O)CNC(=O)[C@H](Cc1c[nH]c2ccccc12)NC(=O)[C@@H](N)CS)[C@@H](C)O)C(=O)NCC(=O)N[C@@H](CC(N)=O)C(=O)N[C@@H](CS)C(=O)NCC(=O)N[C@@H](CCCNC(=N)N)C(=O)N[C@@H](Cc1ccccc1)C(=O)N[C@@H](CCCNC(=N)N)C(=O)N[C@H](C(=O)N[C@@H](CCCNC(=N)N)C(=O)N[C@@H](CS)C(=O)N[C@@H](CS)C(=O)N[C@@H](CCCNC(=N)N)C(=O)N[C@H](C(=O)N[C@@H](CCCNC(=N)N)C(=O)O)[C@@H](C)CC)C(C)C` [P1] (H-CWGPCPTAFRQIGNCGRFRVRCCRIR-OH), in [1], the HA-mediated membrane fusion result was “did not inhibit HA-mediated membrane fusion”. Besides, in data set [2], the endosomal acidification result is on record as “prevented endosomal acidification”. In the data set on A(H7N7) virus [3], the “IC50 (H7N7)” value came to 1.56 µg/mL (≈ 0.51 µM). In the data set with A(H1N1)pdm09 virus [4], the “viral RNP release into the nuclei” value is “blocked viral RNP release into the nuclei”. Besides, the CC50 in the data set “in vitro [5]” and in “in vitro [6]” was more than 400 µg/mL in each case. In addition, the “viral replication in 293T cells (viral titers by plaque assay)” value with H7N7 virus is listed as “could significantly inhibit viral replication”.

Take `N=C(N)NCCC[C@H](NC(=O)[C@H](CCCNC(=N)N)NC(=O)[C@H](CCCNC(=N)N)NC(=O)[C@H](CCC(N)=O)NC(=O)[C@H](CCCNC(=N)N)NC(=O)[C@H](CCCNC(=N)N)NC(=O)[C@H](CCCCN)NC(=O)[C@H](CCCCN)NC(=O)[C@H](CCCNC(=N)N)NC(=O)CNC(=O)[C@@H](N)Cc1ccc(O)cc1)C(=O)O` [TAT, YGRKKRRQRRR (SEQ ID NO: 7), reference compound]: the “IC50 (H1N1)” value with A(H1N1)pdm09 virus [7] is more than 50.0 µg/mL. In the data set with A(H7N7) virus [3], the “IC50 (H7N7)” value was more than 50.0 µg/mL. Besides, the CC50 in the data set “in vitro [5]” and in the data set “in vitro [6]” was more than 400 µg/mL throughout.

As to `CC[C@H](C)[C@H](NC(=O)[C@H](CCC(N)=O)NC(=O)[C@H](CCCNC(=N)N)NC(=O)[C@H](Cc1ccccc1)NC(=O)[C@H](C)NC(=O)[C@@H](NC(=O)[C@@H]1CCCN1C(=O)[C@H](CS)NC(=O)[C@@H]1CCCN1C(=O)CNC(=O)[C@H](Cc1c[nH]c2ccccc12)NC(=O)[C@H](CS)NC(=O)[C@H](CCCNC(=N)N)NC(=O)[C@H](CCCNC(=N)N)NC(=O)[C@H](CCCNC(=N)N)NC(=O)[C@H](CCC(N)=O)NC(=O)[C@H](CCCNC(=N)N)NC(=O)[C@H](CCCNC(=N)N)NC(=O)[C@H](CCCCN)NC(=O)[C@H](CCCCN)NC(=O)[C@H](CCCNC(=N)N)NC(=O)CNC(=O)[C@@H](N)Cc1ccc(O)cc1)[C@@H](C)O)C(=O)NCC(=O)N[C@@H](CC(N)=O)C(=O)N[C@@H](CS)C(=O)NCC(=O)N[C@@H](CCCNC(=N)N)C(=O)N[C@@H](Cc1ccccc1)C(=O)N[C@@H](CCCNC(=N)N)C(=O)N[C@H](C(=O)N[C@@H](CCCNC(=N)N)C(=O)N[C@@H](CS)C(=O)N[C@@H](CS)C(=O)N[C@@H](CCCNC(=N)N)C(=O)N[C@H](C(=O)N[C@@H](CCCNC(=N)N)C(=O)O)[C@@H](C)CC)C(C)C` [TAT-P1] (H-YGRKKRRQRRRCWGPCPTAFRQIGNCGRFRVRCCRIR-OH), in [1], the HA-mediated membrane fusion result is “did not inhibit HA-mediated membrane fusion”. For the same molecule, the endosomal acidification result in data set [2] (setting [11]) was “prevented endosomal acidification”. The molecule also had a survival with A(H7N7) virus [8] of 30%. Moreover, in the data set on A(H1N1)pdm09 virus [4], the “viral RNP release into the nuclei” value is “blocked viral RNP release into the nuclei”. Besides, the CC50 came out at 300 µg/mL (≈ 65.2 µM) in the data set “in vitro [5]” and 226 µg/mL (≈ 49.1 µM) in the data set “in vitro [6]”. For the same molecule, the “viral replication in 293T cells (viral titers by plaque assay)” value in the data set on H7N7 virus was “could significantly inhibit viral replication”.

On to `CC[C@H](C)[C@H](NC(=O)[C@H](CCCNC(=N)N)NC(=O)[C@H](CS)NC(=O)[C@H](CS)NC(=O)[C@H](CCCNC(=N)N)NC(=O)[C@@H](NC(=O)[C@H](CCCNC(=N)N)NC(=O)[C@H](Cc1ccccc1)NC(=O)[C@H](CCCNC(=N)N)NC(=O)CNC(=O)[C@H](CS)NC(=O)[C@H](CC(N)=O)NC(=O)[C@H](CCCNC(=N)N)NC(=O)[C@H](CCCCN)NC(=O)[C@H](CCCNC(=N)N)NC(=O)[C@H](Cc1ccccc1)NC(=O)[C@H](C)NC(=O)[C@H](CCCNC(=N)N)NC(=O)[C@@H]1CCCN1C(=O)[C@H](CS)NC(=O)[C@@H]1CCCN1C(=O)[C@H](CCCNC(=N)N)NC(=O)[C@H](Cc1c[nH]c2ccccc12)NC(=O)[C@H](CS)NC(=O)[C@H](CCCNC(=N)N)NC(=O)[C@H](CCCNC(=N)N)NC(=O)[C@H](CCCNC(=N)N)NC(=O)[C@H](CCC(N)=O)NC(=O)[C@H](CCCNC(=N)N)NC(=O)[C@H](CCCNC(=N)N)NC(=O)[C@H](CCCCN)NC(=O)[C@H](CCCCN)NC(=O)[C@H](CCCNC(=N)N)NC(=O)CNC(=O)[C@@H](N)Cc1ccc(O)cc1)[C@@H](C)CC)C(=O)N[C@@H](CCCNC(=N)N)C(=O)O` [TAT-P2] (H-YGRKKRRQRRRCWRPCPRAFRKRNCGRFRIRCCRIR-OH; N-terminus and C-terminus assumed), for which the results for the CC50 in the data set “in vitro [5]” and in the data set “in vitro [6]” were 160 µg/mL (≈ 33.7 µM) and 154 µg/mL (≈ 32.4 µM), respectively.

With `CC[C@H](C)[C@H](NC(=O)[C@H](CCCNC(=N)N)NC(=O)[C@H](CS)NC(=O)[C@H](CCCNC(=N)N)NC(=O)[C@@H](NC(=O)[C@H](CCCNC(=N)N)NC(=O)[C@H](Cc1ccccc1)NC(=O)[C@H](CCCNC(=N)N)NC(=O)CNC(=O)[C@H](CS)NC(=O)[C@H](CC(C)C)NC(=O)[C@H](CCC(N)=O)NC(=O)[C@H](CCCNC(=N)N)NC(=O)[C@H](Cc1ccccc1)NC(=O)[C@H](CO)NC(=O)[C@@H]1CCCN1C(=O)[C@H](CS)NC(=O)[C@@H]1CCCN1C(=O)[C@H](CCCNC(=N)N)NC(=O)[C@H](Cc1c[nH]c2ccccc12)NC(=O)[C@H](CS)NC(=O)[C@H](CCCNC(=N)N)NC(=O)[C@H](CCCNC(=N)N)NC(=O)[C@H](CCCNC(=N)N)NC(=O)[C@H](CCC(N)=O)NC(=O)[C@H](CCCNC(=N)N)NC(=O)[C@H](CCCNC(=N)N)NC(=O)[C@H](CCCCN)NC(=O)[C@H](CCCCN)NC(=O)[C@H](CCCNC(=N)N)NC(=O)CNC(=O)[C@@H](N)Cc1ccc(O)cc1)[C@@H](C)CC)C(=O)N[C@@H](CCCNC(=N)N)C(=O)O` [TAT-P3] (H-YGRKKRRQRRRCWRPCPSFRQLCGRFRIRCRIR-OH; N-terminus and C-terminus assumed), the figures for the CC50 in “in vitro [5]” and in the data set “in vitro [6]” were 207 µg/mL (≈ 47.6 µM) and 205 µg/mL (≈ 47.1 µM), respectively.

On to `CCN(CC)CCCC(C)Nc1ccnc2cc(Cl)ccc12` (stereo not drawn) [chloroquine], for which the “effective concentrations for inhibiting endosomal acidification” value in the data set with endosomal acidification was approximately 100 µM.

`CC(=O)N[C@H]1[C@H]([C@H](O)[C@H](O)CO)OC(C(=O)O)=C[C@@H]1N=C(N)N` [zanamivir]: the “viral titers in mouse lungs” value with A(H1N1)pdm09 virus [9] is on record as “significantly reduced”. Moreover, in the data set with A(H1N1)pdm09 virus [9] (mouse), the “IL-6 expression in mice” value was “significantly reduced”, the body weight loss result is “significantly reduced” and the survival came out at 90%. In the data set on A(H7N7) virus [8], the body weight loss entry is recorded as “significantly less body weight loss” and the survival amounted to 40%. In [10], the “susceptibility of A(H7N7) virus to zanamivir compared with A(H1N1)pdm09 virus” value is on record as “reduced susceptibility; also recorded: reduced sensitivity of A(H7N7) virus to zanamivir”.

Bafilomycin A1 [reference compound]: in the data set on 293T cells, the “effect of added agent on transfection efficiency of TAT-P1/pLuc” value is listed as “increased”. In data set [2] (setting [11]), the endosomal acidification entry is listed as “prevented endosomal acidification”. For the same molecule, in the data set with A(H1N1)pdm09 virus [4], the “viral RNP release into the nuclei” value is given as “blocked viral RNP release into the nuclei”.

Turning to “NGAICWGPCPTAFRQIG NCGHFKVRCCKIRDED (SEQ ID NO: 9) [PA1, reference compound]”, the “effect of added agent on transfection efficiency of TAT-P1/pLuc” value in the data set on 293T cells is reported as “did not improve the transfection efficiency”. The endosomal acidification result in [2] is reported as “did not prevent endosomal acidification”. In addition, in the data set on mouse lungs, the “effect of added peptide on transfection efficiency of TAT-P1/pLuc in mouse lungs” value is “did not improve the transfection efficiency”.
